Test results reported in PMC12007089, “Applying Isothermal Titration Calorimetry and Saturation Transfer Difference-NMR to Study the Mode of Interaction of Flavan-3-ols with α-Amylase to Understand Their Impact on Starch Hydrolysis” (Journal of Agricultural and Food Chemistry, 2025).
“Also recorded” adds a separate entry of the source. Like-named read-outs stand apart in the source and are kept apart here.

Tests used:
[1] = target: T1, porcine pancreatic α-amylase (Sus scrofa, UniProt P00690); test: Saturation transfer difference (STD)-NMR interaction study; assay type: binding; details: for saturation protein–ligand aliph., corrected by a blank / saturation protein–ligand arom., corrected by a blank / saturation aliph. / saturation arom.: 10 μM α-amylase, 1 mM ligand, 298 K; for saturation protein–ligand arom., corrected by a blank: catechol ring protons; for saturation aliph. / saturation arom.: head prints 'blank', values are protein–ligand not corrected by a blank; for ratio aliph.: share of aliphatic proton saturation; for ratio arom.: share of aromatic proton saturation
T1 sequence (P00690 16-511): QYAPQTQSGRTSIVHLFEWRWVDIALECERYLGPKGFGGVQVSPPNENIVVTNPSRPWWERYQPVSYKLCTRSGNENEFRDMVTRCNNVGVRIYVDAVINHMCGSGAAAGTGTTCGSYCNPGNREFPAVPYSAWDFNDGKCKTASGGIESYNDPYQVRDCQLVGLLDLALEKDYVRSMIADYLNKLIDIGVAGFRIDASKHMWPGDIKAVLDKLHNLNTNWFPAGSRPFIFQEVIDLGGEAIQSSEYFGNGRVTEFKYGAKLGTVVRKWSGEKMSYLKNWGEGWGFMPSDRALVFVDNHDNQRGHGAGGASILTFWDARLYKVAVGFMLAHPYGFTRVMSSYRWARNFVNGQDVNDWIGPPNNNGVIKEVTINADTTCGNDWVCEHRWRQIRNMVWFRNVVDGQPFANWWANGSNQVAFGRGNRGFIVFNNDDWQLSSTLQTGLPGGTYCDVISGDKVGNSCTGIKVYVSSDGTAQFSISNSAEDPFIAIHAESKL
Description: STD-NMR parameters were optimized based on the Bruker standard pulse sequence stddiffgp19.3 using a protein and ligand blank sample. The irradiation frequency (FQ2), saturation time (D20), saturation pulse selectivity (SPW9), and power of the saturation pulse (P42) were varied to achieve maximum selective protein saturation (S2). The best saturation of the α-amylase, with 60%, was obtained with FQ2 = 0.5 ppm, D20 = 3 s, SPW9 = 35 dB, and P42 = 50 ms. The pseudo-2D experiment allows simultaneous acquisition of the on-resonance spectrum (with selective protein saturation) and the off-resonance spectrum (without protein saturation). The subtraction of both FIDs yields the STD-NMR spectrum (S3). The off-resonance spectrum serves as a reference spectrum for the determination of ligand saturation by intensity comparison with the STD-NMR spectrum. The protein blank sample contained 10 μM α-amylase, and the ligand blank was acquired with 1.1 mM flavan-3-ol in 0.1 M phosphate buffer/0.04 M NaCl (D2O/H2O, 90/10, v/v). Interaction studies were performed with 10 μM α-amylase and 1 mM (ligand). The software package TopSpin 3.2 of Bruker BioSpin was used for data acquisition and processing.

[2] = Stability of ligands in 0.1 M PBS (UV/Vis concentration); assay type: physicochemical; details: for conc.: storage 3,5 h (EC), 22 h (CAT), 15 h (PC B1, PC B2, PC C1); for difference rt and 277 K: same storage times
Experimental: Flavan-3-ols were dissolved in 0.1 M phosphate buffer containing 0.04 M NaCl at pH 7. Final concentrations were determined by UV/Vis spectroscopy at 298 K (quartz glass cuvette, light path 10 mm, Hellma Analytics, SPECTROstar Nano, BMG Labtech) using the following absorption coefficients ε at 280 nm: CAT, 3340 [L/mol cm]; EC, 3470 [L/mol cm]; PC B1, 6800 [L/mol cm]; […] PC C1, 10,000 [L/mol cm] according to Kaeswurm et al.[33] All ligand solutions were stored at 253 K. The data analysis for the interaction studies was conducted using software NanoAnalyze, with manual integration of the peaks. To correct the data for noninteraction-related heats, the mean heat released during the final three injections was subtracted as a constant blank. This procedure is an effective estimation strategy that minimizes errors during the fitting process, provided that the protein is fully saturated.[35] The data were fitted using the “independent” model. To prevent overparametrization, n was set to 1, while Ka and ΔH were maintained as variables, as recommended for low-affinity binding.[35],[36] The stability of the ligand at room temperature was ensured by monitoring the concentrations prior to and following the experiment (S5).

[3] = target: T1, porcine pancreatic α-amylase; test: CD spectroscopy, change in secondary structure of α-amylase; details: for impact on the secondary structure of α-amylase: 90 μM α-amylase, 600 μM flavan-3-ol; for α-helix / β-turn / β-sheet / random coil: α-amylase + polyphenol, 90 µM α-amylase, 600 µM polyphenol; for α-helix: α-amylase alone 8; for β-turn: α-amylase alone 12; for β-sheet: α-amylase alone 32; for random coil: α-amylase alone 48
Experimental: CD spectra were recorded in the range of 240–190 nm with a bandwidth of 1 nm on a Jasco J-815 CD spectrometer equipped with a Peltier unit from Jasco PTC-4238 and a temperature control (F250, Julabo). For CD experiments, 20 μL respective dilutions of the stock solutions for α-amylase, EC, and PC B2 or mixtures of α-amylase and flavan-3-ol, obtained from the ITC cell after interactions experiments (see Section 2.7; 90 μM α-amylase and 600 μM EC/PC B2), were diluted with 60 μL of 0.2 M KCl and filled bubble-free into a cuvette with a light path of 0.1 mm (Hellma Analytics). At 273 K, 40 independent spectra were accumulated in a continuous scanning mode and a speed of 100 nm/min without baseline correction. Data analysis was performed in Excel according to Kaeswurm et al.[34]

[4] = target: T1, porcine pancreatic α-amylase; test: 1H NMR of aggregation of PC C1 with α-amylase; assay type: binding; details: for adsorption of PC C1 on the surface of α-amylase: 1 mM (0.75 μmol) PC C1; for PC C1 signal intensities after addition of α-amylase: 275 K
Experimental: ^1H NMR experiments were conducted to investigate the aggregation of PC C1 with α-amylase. First, 1 mM PC C1 (0.75 μmol) was measured, and then, α-amylase was added at concentrations of 10 and 20 μM. The relative decrease in intensity of PC C1 signals in the range of 6.866–7.040 ppm (E2′, H6′, B2′, B5′, E5′, E6′, and H5′) was used to calculate the proportion of PC C1 aggregated with α-amylase. Blank measurements were performed with 10 and 20 μM α-amylase dissolved in the same buffer without PC C1. Data were acquired using a Bruker Avance III HD 600 MHz NMR spectrometer equipped with a 5 mm BBFO probe (Smart Probe) with ATM and a z-gradient. Spectra were recorded at 275 K (2 °C) in 0.1 M phosphate buffer/0.04 M NaCl phosphate buffer, pH 7, in D2O:H2O (9:1). The pulse program zgesgp was used with a spectral width of 16 ppm, and all spectra were recorded with 512 scans, an acquisition time of 1.70 s, and a recycle delay (D1) of 1 s. Data were analyzed using TopSpin software (version 4.4.1, Bruker).

[5] = target: α-amylase; design: method as in PMID 31496243; details: substrate Gal-G2-CNP, UV-based, cited from earlier work
[6] = test system: α-amylase; design: method as in PMID 27132823; details: cited from earlier work

SMILES | saturation protein–ligand aliph., corrected by a blank [1] [%] | saturation protein–ligand arom., corrected by a blank [1] [%] | saturation aliph. [1] [%] | saturation arom. [1] [%] | ratio aliph. [1] | ratio arom. [1] | conc. ([2]; 277 K) | conc. ([2]; room temperature (rt)) | difference rt and 277 K [2] | impact on the secondary structure of α-amylase [3] | α-helix [3] [%] | β-turn [3] [%] | β-sheet [3] [%] | random coil [3] [%] | other results
Oc1cc(O)c2c(c1)O[C@H](c1ccc(O)c(O)c1)[C@H](O)[C@H]2c1c(O)cc(O)c2c1O[C@H](c1ccc(O)c(O)c1)[C@@H](O)C2 [PC B1, procyanidin B1] | 11 | 14 | 11 | 14 | 44 | 56 | 4,28 ± 0,20 mM | 4,10 ± 0,29 mM | 0,18 mM |  |  |  |  |  | 
Oc1cc(O)c2c(c1)O[C@H](c1ccc(O)c(O)c1)[C@H](O)[C@H]2c1c(O)cc(O)c2c1O[C@H](c1ccc(O)c(O)c1)[C@H](O)C2 [PC B2, procyanidin B2] | 6 | 9 | 6 | 9 | 40 | 60 | 4,46 ± 0,24 mM | 4,56 ± 0,21 mM | 0,11 mM | No significant impact; also recorded: did not induce significant changes | 14 | 15 | 23 | 48 | 
Oc1cc(O)c2c(c1)O[C@H](c1ccc(O)c(O)c1)[C@H](O)[C@H]2c1c(O)cc(O)c2c1O[C@H](c1ccc(O)c(O)c1)[C@H](O)[C@H]2c1c(O)cc(O)c2c1O[C@H](c1ccc(O)c(O)c1)[C@H](O)C2 [PC C1, procyanidin C1] | 7 | 11 | 7 | 11 | 39 | 61 | 4,60 ± 0,42 mM | 4,29 ± 0,30 mM | 0,31 mM |  |  |  |  |  | observation in the STD-NMR sample with α-amylase [1]: visible precipitation; PC C1 concentration in solution after precipitation ([1]; after STD experiment, 1 mM PC C1, 10 μM α-amylase): 0.35 mM; decrease of PC C1 in solution after precipitation ([1]; integrals of aromatic protons, off-resonance spectrum vs pure ligand blank, 1 mM PC C1, 10 μM α-amylase): roughly 65%; ratio of PC C1 to α-amylase ([4]; 10 μM α-amylase): 26; adsorption of PC C1 on the surface of α-amylase ([4]; 10 μM α-amylase): 0.20 µmol; ratio of PC C1 to α-amylase ([4]; 20 μM α-amylase): 18; adsorption of PC C1 on the surface of α-amylase ([4]; 20 μM α-amylase): 0.28 µmol; PC C1 signal intensities after addition of α-amylase ([4]; 1 mM PC C1, 10 μM α-amylase): 73%; PC C1 signal intensities after addition of α-amylase ([4]; 1 mM PC C1, 20 μM α-amylase): 63%
Oc1cc(O)c2c(c1)O[C@H](c1ccc(O)c(O)c1)[C@H](O)C2 [EC, (−)-Epicatechin] | 6 | 21 | 6 | 21 | 21 | 79 | 3,99 ± 0,25 mM | 4,23 ± 0,24 mM | 0,24 mM | No significant impact; also recorded: did not induce significant changes | 14 | 15 | 23 | 48 | Ki ([5]; read-out: Kic): 88 ± 37 µM; Ki ([5]; read-out: Kiu): 231 ± 45 µM; inhibition of α-amylase compared to other phenolic compounds and the apple extract [6]: weakest inhibition
Oc1cc(O)c2c(c1)O[C@H](c1ccc(O)c(O)c1)[C@@H](O)C2 [CAT, (+)-Catechin] | 3 | 11 | 5 | 13 | 21 | 79 | 3,94 ± 0,24 mM | 4,02 ± 0,21 mM | 0,08 mM |  |  |  |  |  | 
